Among the data in ChEMBL document CHEMBL3507680, “University of Dundee, Gates Library screen for HepG2 cell viability” are cytotoxicity values, retold here.

SMILES strings stand for the structures.

The series in a line: Human HepG2 cell viability assay in 384 well format. It is filed as toxicity, cell-based. Also noted: dose 125 nL, time 70.5 hour; concentration not given beside the values. To be noted: HepG2 cells, read-out: Inhibition.
For `Cc1cc(-c2cc(N)c(=O)n(CC(=O)NC3CCCC3)n2)c(C)o1`, the cytotoxicity at 70.5 h is -1.96%.

As to `CC(=O)N1N=C(c2ccccc2)OC1C(=O)NCCc1ccc(C)cc1` (centres undefined), the cytotoxicity at 70.5 h came to 0.438%.

As to `O=C(NCC1CCS(=O)(=O)C1)N(Cc1ccccn1)C1CC1` (centres undefined), the cytotoxicity at 70.5 h was -6.34%.

In the case of `CCN(Cc1ccc2c(c1)OCCO2)C(=O)NCc1nncn1CC`, the cytotoxicity at 70.5 h was -13.5%.

Regarding `N[C@H]1CN(CCOc2ccc(F)cc2)C[C@@H]1C1CC1`, the cytotoxicity at 70.5 h was 14.7%.

`O=C(NCc1ccccn1)[C@@H]1COC[C@H]2CN(C3CCC3)C[C@H]21`: the cytotoxicity at 70.5 h is -13.4%.

Take `CC(O)c1cn(CC2CCN(C(=O)c3cccc(N(C)C)c3)CC2)nn1` (centres undefined): the cytotoxicity at 70.5 h was -4.18%.

In the case of `c1cncc(-c2ccc3c(c2)C2(CC3)CCN(c3nncs3)CC2)c1`, the cytotoxicity at 70.5 h is -13.1%.

For the compound `CCNC(c1ccc(F)cc1)c1cccnc1` (centres undefined), the cytotoxicity at 70.5 h was -19.7%.

Turning to `CN(C)c1nccc(N(C)C2CCCCC2)n1`, the cytotoxicity at 70.5 h is -4.22%.

`Cc1nc(O)cc(CN2C[C@H](NC(=O)C3CCCC3)[C@@H](C3CC3)C2)n1`: the cytotoxicity at 70.5 h was -9.17%.

Regarding `Cc1noc(C)c1C(=O)N1CCCC(c2nccn2Cc2cscn2)C1` (centres undefined), the cytotoxicity at 70.5 h is -5.18%.

Take `CCC1CN(C(=O)c2ccc(O)cn2)CCC(=O)N1Cc1ccccc1` (centres undefined): the cytotoxicity at 70.5 h is -3.56%.

As for `OCCN1CCC(CNCc2cn(-c3ccccc3)nn2)CC1`, the cytotoxicity at 70.5 h is -12.5%.

Turning to `CN1C(Cn2cccn2)C[C@@H]2CN(C(=O)c3cccc(C#N)c3)CC[C@@H]21` (some centres undefined), the cytotoxicity at 70.5 h was -7.79%.

On to `Cc1cccn2cc(CN3CCC(N4CCN(C)C4=O)CC3)nc12`, for which the cytotoxicity at 70.5 h is -6.74%.

`CCC(CO)N(Cc1ccccn1)C(=O)c1ccc2c(c1)CCO2` (centres undefined): the cytotoxicity at 70.5 h was 15%.

Regarding `O=C1[C@H]2CN(Cc3ccc(F)cc3)C[C@H]2CN1CCN1CCCC1`, the cytotoxicity at 70.5 h is 12.5%.

As to `NC1CCCCN(Cc2cc(-c3ccccc3OC(F)(F)F)no2)C1` (centres undefined), the cytotoxicity at 70.5 h is -8.03%.

`Cn1cc(C(=O)N2CCC(c3nccn3Cc3ccncc3)CC2)cn1`: the cytotoxicity at 70.5 h was -7.19%.

Take `c1csc(CN2Cc3[nH]nc(COCC4CC4)c3C2)c1`: the cytotoxicity at 70.5 h is -8.6%.

As for `c1ccc(-c2nnc(N3CCCC4(CCOC4)C3)s2)cc1` (centres undefined), the cytotoxicity at 70.5 h stood at 1.41%.

In the case of `Cn1ncc2c(N3CCCC(C)(O)C3)nc(C(C)(C)C)nc21` (centres undefined), the cytotoxicity at 70.5 h is -7.72%.

As for `Cc1nc(C)n(CC2CCCN2Cc2cn3cc(Cl)ccc3n2)n1` (centres undefined), the cytotoxicity at 70.5 h is -1.76%.

For the compound `N#CCCN(CC1CCOC1)Cn1ccc(-c2ccsc2)n1` (centres undefined), the cytotoxicity at 70.5 h amounted to 0.369%.

Consider `Cc1nc([C@@H]2C[C@@H]3CCN(C(=O)c4ccnnc4)C[C@H]3O2)sc1C`, for which the cytotoxicity at 70.5 h came out at 5.38%.

With `Cc1ccc(OCCC(=O)N2CCOCC2c2ncon2)cc1C` (centres undefined), the cytotoxicity at 70.5 h is -7.26%.

As to `O=C(c1ccnnc1)N1C[C@@H]2CN(c3ncccn3)C[C@@H]2C1`, the cytotoxicity at 70.5 h was found to be 7.41%.

`O=C1CC[C@H]2CN(c3ncc(F)cn3)CC[C@H]2N1CCc1ccccc1`: the cytotoxicity at 70.5 h is -6.02%.

Consider `O=C(NCC1CC1)C1=NOC2(CCN(S(=O)(=O)c3cccs3)C2)C1` (centres undefined), for which the cytotoxicity at 70.5 h is -10%.

`CCC(Nc1nc(C(F)(F)F)nc2ccccc12)C(=O)O` (centres undefined): the cytotoxicity at 70.5 h is 2.5%.

Take `Cc1cc(C(=O)N2CC[C@@H](O)[C@@H]2Cc2ccccc2)no1`: the cytotoxicity at 70.5 h was -11.3%.

Turning to `c1ccc(-c2nc(CN3CCn4c(nnc4C4CC4)C3)no2)cc1`, the cytotoxicity at 70.5 h is -9.58%.

`Cc1nc(O)cc(CN2C[C@H](NS(=O)(=O)N(C)C)[C@@H](C3CC3)C2)n1`: the cytotoxicity at 70.5 h is -3.51%.

As to `CN(Cc1cccs1)C(=O)CS(=O)(=O)Cc1ccc(Cl)c(Cl)c1`, the cytotoxicity at 70.5 h is 26.3%.

Turning to `CN1C[C@@H](NC(=O)C(C)(C)C)C[C@H]1C(=O)NCc1ncc[nH]1`, the cytotoxicity at 70.5 h was -8.54%.

Turning to `CC(C)NC(=O)N1CCc2ncc(CN3CCOCC3)n2CC1`, the cytotoxicity at 70.5 h was -1.87%.

For `O=C(c1cccnc1)N1CCn2nnc(COc3ccccn3)c2C1`, the cytotoxicity at 70.5 h is -14.2%.

Turning to `O=C1NCC2(CCCN(c3ncnc4c3CCC4)CC2)O1` (centres undefined), the cytotoxicity at 70.5 h is 2.31%.

As to `CC(C)c1cc(NC(=O)c2ccc([S+]([O-])C(C)C)cc2)[nH]n1` (centres undefined), the cytotoxicity at 70.5 h was -3.24%.

For `CCS(=O)(=O)N1CCC2(CN(c3cccc(C)n3)C2)C1`, the cytotoxicity at 70.5 h was -4.08%.

Consider `Cc1nnsc1C(=O)N1C[C@H]2CC[C@@H]1CN(c1cnccn1)C2`, for which the cytotoxicity at 70.5 h was -5.21%.

On to `CC(C)NC(=O)Nc1cccc2c1CCN(S(C)(=O)=O)C2`, for which the cytotoxicity at 70.5 h is -1.67%.

For the compound `COCC(=O)N[C@H](C(=O)NC(C)c1cc(C)ccc1C)C(C)C` (some centres undefined), the cytotoxicity at 70.5 h was -0.855%.

On to `c1cc(CNCc2ccnc(N3CCCCC3)c2)c2c(c1)OCCCO2`, for which the cytotoxicity at 70.5 h is -10.6%.

On to `Cc1nc(COC[C@H]2CCC[C@]23CN(CC2CC2)CCO3)cs1`, for which the cytotoxicity at 70.5 h stood at 18.4%.

Take `c1ccc(-c2ccc(C3CNCCO3)nc2)cc1` (centres undefined): the cytotoxicity at 70.5 h was -19.9%.

As for `CC(C)(C)CN(CCC#N)Cn1cc(Cl)cn1`, the cytotoxicity at 70.5 h was -3.15%.

Turning to `CCOCCC(=O)NCC1CCCO1` (centres undefined), the cytotoxicity at 70.5 h was -6.72%.

Consider `N#Cc1ccc(F)c(CNC(=O)NCCC(=O)NC2CCCC2)c1`, for which the cytotoxicity at 70.5 h is -3.12%.

Consider `COc1ccc2c(c1)CN(Cc1nc3c(cnn3C)c(=O)[nH]1)CC2`, for which the cytotoxicity at 70.5 h was determined as 45.5%.

On to `COCC(C)NCc1ccc2[nH]c(C)c(C)c2c1` (centres undefined), for which the cytotoxicity at 70.5 h was -7.86%.

In the case of `O=C(NCC1CC1)C1=NOC2(CCN(Cc3ccc4c(c3)OCO4)C2)C1` (centres undefined), the cytotoxicity at 70.5 h was -5.94%.

On to `CCN1C(=O)CCCC12CCCN(C(=O)c1occc1C)C2` (centres undefined), for which the cytotoxicity at 70.5 h was -10.4%.

For `CCc1cc(=O)n(CC(=O)NCC2CCCO2)c(-c2cccc(F)c2)n1` (centres undefined), the cytotoxicity at 70.5 h came out at 2.39%.

`CN(CCn1cccn1)S(=O)(=O)c1ccc(C#N)cc1`: the cytotoxicity at 70.5 h was -8.98%.

Take `CN(C)c1ccc(C(=O)N2CCN(Cc3cscn3)CC2)cc1F`: the cytotoxicity at 70.5 h was -8.39%.

Turning to `Cn1ncc2c(=O)[nH]c(CN3CCCC3CCc3ccccc3)nc21` (centres undefined), the cytotoxicity at 70.5 h was -1.66%.

As to `CCS(=O)(=O)NC(CCSC)C(=O)Nc1cc(F)ccc1C` (centres undefined), the cytotoxicity at 70.5 h is -36.1%.

For `Cc1noc(C)c1CN1CCN(Cc2ccncc2)c2ncccc2C1`, the cytotoxicity at 70.5 h is -7.22%.

For the compound `CC(NC(=O)NCC(C)(C)O)c1ccc(-c2ccncc2)cc1` (centres undefined), the cytotoxicity at 70.5 h is -1.45%.

For the compound `CC(=O)N1CCc2c(nc(N(C)C)nc2NCCCn2ccnc2C)C1`, the cytotoxicity at 70.5 h was -4.2%.

`COCCN1CCC(CNC(=O)C2(c3ccc(F)cc3)CCC2)CC1`: the cytotoxicity at 70.5 h is -0.878%.

Regarding `Cc1nn(C)cc1-c1ccnc(NCCN)n1`, the cytotoxicity at 70.5 h is -8.28%.

Take `OCC1(Cc2ccc(F)cc2F)CCCN(Cc2ccncc2)C1` (centres undefined): the cytotoxicity at 70.5 h is -5.76%.

For the compound `CC(C)c1ccc(CS(=O)(=O)CC(=O)NCc2ccccc2F)cc1`, the cytotoxicity at 70.5 h was -17.3%.

With `O=C(CN1CC(c2nc(-c3ccco3)no2)C1)NCC1CCCO1` (centres undefined), the cytotoxicity at 70.5 h was 13.7%.

As for `Cc1ccccc1CSc1nc(=O)n(CCO)c2c1CCC2`, the cytotoxicity at 70.5 h is -9.33%.

With `Cc1nnc2n1CCN(C(=O)COCCOc1ccccc1)C2`, the cytotoxicity at 70.5 h is -1.96%.
